Source: a melting point compilation (Tetko et al.; mined from patent text by program, amines drawn as free bases though some values may be those of a salt)

SMILES	melting point
N#CCN1CCc2oc3ccccc3c2C1	78 °C
COc1ccc(NC(=O)c2ccc(Cl)c(Cl)c2)cc1NCc1cccc(F)c1	197 to 199 °C
N=C(N)NCCc1ccc(OCCC2Oc3ccccc3N(Cc3cc(Cl)cc(Cl)c3)C2=O)cc1 (stereo unspecified)	116 to 117 °C
CC(C)[C@H](NC(=O)N(C)Cc1cscn1)C(=O)N[C@@H](Cc1ccccc1)[C@@H](O)C[C@H](Cc1ccccc1)NC(=O)OCc1cccnc1	71 to 74 °C
CN1C(=O)CC[C@]2(C)c3ccc(-c4ccc(C(F)(F)F)cc4)cc3CC[C@@H]12	86 to 89 °C
O=C(CCc1ccc2ccccc2n1)NO	159 to 160 °C
O=C(O)c1cccc(Oc2ccc(Br)cc2)c1	171 to 173 °C
OCCC#Cc1ncccn1	58 to 64 °C
CCc1nc2c(N)nc(C)c(C)c2n1CCOCCNC(=O)NS(=O)(=O)c1ccccc1	201 to 203 °C
CN(C)CCc1ccc(O)c2[nH]nnc12	207 to 211 °C
CS(=O)(=O)c1ccc(C(CC2CCCC2)C(=O)Nc2nc(CO)cs2)cc1 (stereo unspecified)	124 to 126 °C
CCOC(=O)/C=C/c1ccc(OCCOC)cc1OCc1nc(-c2ccccc2)oc1C	109 to 110 °C
CC(C)OC(=O)N[C@H](C(=O)N[C@H](CN)C(C)C)C(C)C	106 °C
CNc1nc2ccccc2n2cnnc12	> 300 °C
CSC(=NC(=O)c1ccccc1)Nc1c(Cl)cccc1Cl	127 to 129 °C
CC(C)(C)OC(=O)NC12CC3CC(CC(O)(C3)C1)C2	131 to 132 °C
CCOC(=O)c1ccc(-c2cnc(-c3ccc(C(F)(F)F)cc3)s2)cc1	174 to 176 °C
CCOc1ccc2[nH]c(=O)sc2c1	147 °C
CC1(C)CC(=O)Nc2cc3nc(-c4cccc(Cl)c4)[nH]c3cc21	190 to 193 °C
COC(=O)c1ccc(C(=O)Nc2nnc(-c3cc(Cl)cc(Cl)c3O)s2)nc1	301 °C
CCOc1cc(CO)ccc1OCCBr	51 to 53 °C
CCCCC(Cc1ccc(OCCNC(=O)c2ccc(Oc3ccccc3)nc2)cc1)C(=O)O (stereo unspecified)	124 to 125 °C
NC(=O)c1c(F)ccc(F)c1N	121 to 123 °C
Clc1ccc(-c2cc(-c3ccccc3)c(-c3ccccc3)s2)cc1	115 to 117 °C
CCNC(=O)c1cc(NS(=O)(=O)c2ccc(C(F)(F)F)cn2)ccc1Oc1cncc(Cl)c1	147 to 148 °C
CN1CCC(C2Nc3cc(Br)ccc3N3CCc4cccc2c43)CC1 (stereo unspecified)	206 to 208 °C

SMILES	melting point
COc1ccc([C@@H]2CCc3cc(OC)ccc3[C@@H]2Cn2ccnc2)cc1 (relative stereo)	114 °C
N#Cc1cccnc1N1CCN(CC(=O)Nc2cccc([N+](=O)[O-])c2)CC1	143 to 145 °C
O=C(O)c1ccc(COCc2csc3nc(C(=O)NCc4cccc(OC(F)(F)F)c4)[nH]c(=O)c23)cc1	248 to 250 °C
O=C1NC(=O)C(Cc2ccc(OCCON=Cc3cnc4ccccc4c3)cc2)S1 (stereo unspecified)	182 to 184 °C
Cc1ccc(-c2nc3ccc(C)cn3c2CC(=O)O)cc1	228 to 230 °C
COC(=O)C1=C(C)NC(C)=C(C(=O)OCCCCCCCC#N)C1c1cccc([N+](=O)[O-])c1 (stereo unspecified)	151 to 152 °C
CN(CC#N)Cc1nc(-c2cc(C(C)(C)C)c(O)c(C(C)(C)C)c2)cs1	150 to 156 °C
CCCCOC(=O)CNC(=O)c1nc2ccc(OCCCC)cc2cc1OCc1ccccc1	99 to 101 °C
CCN(CC)C(=O)CCC(=O)c1cccc(C)c1N	104 °C
C#CCN(c1ccc(C(=O)O)cc1)C1CCc2cc3nc(COC(=O)C(C)(C)C)[nH]c(=O)c3cc21 (racemic)	133 °C
COc1cc(CC(=O)NCCOc2ccc(C)c(C)c2)ccc1OCCN	95 to 97 °C
CCCCCCCCCCCCCCC1C(=O)OC2OC3(C)CCC4C(C)CCC1C24OO3 (single isomer, unassigned; (+))	65 to 66 °C
COc1ccc(-c2nc(C)nn2-c2ccc(S(N)(=O)=O)cn2)cc1	191 to 192 °C
COc1cc(COc2nn(-c3ccccc3)cc2/C=C/C=O)ccc1OCc1nc(-c2ccco2)oc1C	134 to 135 °C
Cc1nc(N2CCN(CCc3c[nH]c4ccccc34)C2=O)sc1C(=O)NCc1ccccc1	215 to 217 °C
Cn1c(=O)c(Oc2c(F)cccc2F)cc2cnc(S(C)(=O)=O)nc21	215 to 216 °C
CCCCCCC1CC(=O)C2=C(C1)NC(=O)CC2 (stereo unspecified)	142 to 144 °C
CCc1nn(Cc2n[nH]c(=O)o2)c(CC)c1Oc1cc(Cl)cc(Cl)c1	138 to 142 °C
CCOC(=O)c1ccc(N(C(=O)OC(C)(C)C)N(C)C(C)=O)cc1	82 °C
COc1ccnc(CCc2nc3cc(-c4ccc(OC)c(OC)c4)cnc3[nH]2)c1	185 to 186 °C
Cc1ccc(S(=O)(=O)n2ccc3cc(-c4ccccc4)cnc32)cc1	151 to 152 °C
CC(C)(C)OC(=O)Nc1ccc(C2=CCN(C(=O)OC(C)(C)C)CC2)cc1[N+](=O)[O-]	85 to 87 °C
CCC/C=C/[C@H]1CC[C@H](c2ccc(C(C)=O)cc2)CC1	51.2 °C
COc1ccc(C#CC(=Nc2ccc(OC)cc2)N2CCN(Cc3ccc(C)cc3)CC2)cc1	107 °C
Cc1cc(C=Cc2ccc(-c3ccc(C(F)(F)F)cc3)cc2)ccc1OCC(=O)O	243 to 245 °C
O=C(Cl)C(=O)c1cn(Cc2ccc(Cl)cc2)c2ccccc12	151 to 153 °C

SMILES	melting point
COc1ccc(CCNC(=O)CCCCC(=O)NCCc2ccc(OC)c(OC)c2Cl)c(Cl)c1OC	159 to 161 °C
CCCCc1nc(C=O)c(Br)[nH]1	113 °C
COCCOC(=O)C(=O)Nc1nc(-c2ccccc2)cs1	118 to 120 °C
CC(=O)OCCc1cc2c(s1)S(=O)(=O)CCc1cc(=O)n(-c3ccc(Cl)cc3)nc1-2	137 to 140 °C
O=C(NCCn1cncn1)c1ccco1	131 to 133 °C
O=c1cc2c(nn1Cc1ccc(Cl)cc1)-c1ccccc1S(=O)CC2 (stereo unspecified)	207 to 209 °C
CON(Cc1ccc(F)c(F)c1)C(=O)C1=C(O)C(=O)N(C)C1	146 to 147 °C
N[C@]1(C(=O)O)C=C[C@H]2[C@H](C(=O)O)[C@H]21	> 250 °C
CC(c1ccc(-c2ccccc2)c(F)c1)c1cc(N)on1 (stereo unspecified)	122 to 123 °C
C[C@]12CCC(=O)N[C@@H]1CCc1cc(C=O)ccc12	185 to 189 °C
CC12CCC3C(CC=C4CC(O[Si](C)(C)C(C)(C)C)CCC43C)C1CCC2=O (stereo unspecified)	146 to 148 °C
COCCN1CCC(O)(c2cccc(Cl)c2Cl)CC1	135 to 137 °C
CCc1cc(C(=O)c2ccccc2Cl)c(-n2c(C)nnc2CO)s1	140 to 141 °C
CN(C)CCCOc1ccccc1C=NCC(N)=O	71 to 73 °C
CCCCN(CCCC)c1ccc(C=CC2=C(OC)C(=CC=CC3=C(C#N)C(=C(C#N)C#N)OC3(C)C)CC(C)(C)C2)c(OC)c1	244 to 246 °C
N#CCCn1[nH]c(C#N)cc1=O	162 to 164 °C
O=c1[nH]c2ccccc2n1CCCN1CCC(C(O)(c2ccc(F)cc2)c2ccc(F)cc2)CC1	141 to 143 °C
Nc1ccc(Cl)cc1C(=O)C(F)(F)Cl	55 to 56 °C
Cc1ccc(S(N)(=O)=O)cn1	151 to 155 °C
Cc1cc(CC(C)NCCC(c2ccccc2)c2ccccc2)ccc1O (stereo unspecified)	115 to 118 °C
Cc1c(-c2cc(F)ccc2F)[nH]c(N)c1C#N	146 to 147 °C
CCOC(=O)/C=C/c1nc(COc2ccc(COc3nn(-c4ccccc4)cc3/C=C\c3csc(CC)n3)cc2OC)c(C)o1	95 to 96 °C
COC(=O)CS(=O)(=O)Nc1c(F)cccc1Oc1nc(OC)cc(OC)n1	111 to 114 °C
CC(C)(C(=O)O)c1cn2nc(CCCCN3CCN(C(c4ccccc4)c4ccccc4)CC3)ccc2n1	108 to 110 °C
CCCCCCCCCCCCCCCCNC(=O)c1cccnc1	85 to 87 °C
CCOC(=O)C(=O)Nc1ccc(Br)c2cccnc12	152 °C

SMILES	melting point
COC(=O)Nc1cccc(C)c1COc1cccn2c(C=O)c(C)nc12	196 to 198 °C
CC1(C2CCCC2)Cc2cc(OCC(=O)O)c(Cl)c(Cl)c2C1=O (stereo unspecified)	113 to 114 °C
O=S(c1ccccc1)c1cccnc1 (stereo unspecified)	56 °C
COc1ccc2c(c1)[C@](C)(NC(=O)c1cc3cccc4c3n1CC4)C(=O)N2c1ccc(F)cc1	277 to 278 °C
CC(=O)CCNc1ccc(-c2cc(-c3ccc(C(=O)O)cc3)ccc2OCCCCO)cc1C(C)(C)C	75 °C
O=C(O)c1cc2ccc(Cl)cc2[nH]c1=O	317 to 318 °C
CN=C(NOC)c1nn(-c2c(Cl)cc(C(F)(F)F)cc2Cl)c(N)c1S(C)=O (stereo unspecified)	139 to 142 °C
COC(=O)c1ccc(OC)cc1S(=O)(=O)NC(=O)Nc1nc(C)nc(OC)n1	183 to 186 °C
CC(C)(C)OC(=O)Nc1scc(C2CC2)c1C(=O)O	175 to 176 °C
CC(C)C[C@H](NC(=O)C(S)[C@@H](N)Cc1ccccc1)C(=O)O (stereo partly specified)	96 to 105 °C
COC(=O)c1ccc(CCNCC(O)c2ccccc2Cl)cc1 (stereo unspecified)	94 to 95 °C
CCn1c(C(c2cccc(F)c2)c2cccc(F)c2)nc(-c2ccncc2)c1-c1ccc(Cl)cc1	184 to 186 °C
CCCN1CCC23c4cccc(O)c4OC2C2CCC3(C1)C(CSC)C2 (stereo unspecified)	152 to 153 °C
Cc1cc(C(=O)O)cc(C)c1C(=O)O	> 300 °C
Clc1cc(I)cnc1Cl	55 to 57 °C
O=C(NC[C@H]1CN(c2cc(F)c(N3CCC(n4nccn4)CC3)c(F)c2)C(=O)O1)C(F)F	254 to 255 °C
OCCCc1oc(Sc2ccccn2)nc1-c1ccc(Cl)cc1	70 to 71 °C
CC(=O)C(Cc1cc(O)c(O)c([N+](=O)[O-])c1)C(C)=O	118 to 128 °C
CCOCCn1c(N2CCCN(CCC3(c4ccc(Cl)cc4)CCN(C(=O)c4cc(OC)c(OC)c(OC)c4)C3)CC2)nc2ccccc21 (stereo unspecified)	74 to 81 °C
NC(P(=O)(O)O)P(=O)(O)O	255 to 265 °C
O=C(c1c(F)cccc1F)N1CSCN(c2ccc(Cl)cc2)C1=O	128 to 130 °C
CC(C)c1ccc(-c2ncc(-c3cccc(C(=O)O)c3)s2)cc1	237 to 239 °C
O=C(O)C(=O)Cc1ccc(-c2ccccc2)cc1	215 to 218 °C
